According to patent US7635722B1, “Chemical induced intracellular hyperthermia” (priority 1998, dated 2009):

Columns and labels:
[1] = man and animals accidentally intoxicated; cited from earlier work
[2] = system: metastatic, hormone-refractory prostate carcinoma; assay: DNP with methylene blue, prostate carcinoma (Example 9); type: in vivo, human
Procedure: Pretreatment protocol: the patient was transfused with 2 units of packed red blood cells 48 hours prior to undergoing treatment. Intravenous fluids (Lactated Ringer's solution) were administered at a rate of 100 cc/hour. The patient was dressed in comfortable cotton clothing and placed in an air-conditioned room. Equipment for monitoring heart rate and rhythm, temperature and oxygen consumption was utilized as outlined in Example 1. An oral breathing tube was used to conduct TEEM VO2 measurements. Oxygen supplementation and “crash cart” was available at bedside.
Treatment protocol: baseline VO2 measurements for 8 minutes established an average VO2 of 250 cc/minute. DNP, at a dose of 2 mg/kg, was infused intravenously over a 2 minute period. Repeat VO2 at 20 minutes was stabilized at 340-360 cc/minute. An additional 1 mg/kg DNP infusion was administered, and 15 minutes thereafter the VO2 increased and stabilized at 420 cc/minute. Ten minutes thereafter, an infusion of methylene blue, 2 mg/kg (dissolved in a […] pyrogen-free isotonic saline solution-35 ml) was administered over 20 minutes.
By hour 3, VO2 declined to the 360-380 cc/minute range. An additional 1 mg/kg dose of DNP was infused over a 2 minute period. […] Rectal probe temperature increased to a maximum of 1.3° C. over baseline. […] The protocol was repeated every other day for a total of 15 treatments (30 days). Therapy was discontinued for 2 weeks and the cycle was again repeated for an additional 30 days, treatment being administered every other day.

candida = assay: DNP hyperthermia, oral candidiasis (Example 2); type: in vivo, human
Procedure: Pretreatment protocol: all medications were stopped 2 weeks prior to treatment. The patient refused taking diazepam, placement of a Foley catheter and oxygen face mask. They dressed themself into a dry cold water immersion suit (Stearns, ISS-590I, Universal Adult) designed to prevent heat loss and modified for easy placement of physiologic monitors. Equipment for measurement of heart rate, temperature, carbon dioxide production and Kcal of heat produced were conducted as outlined in Example 1. An oral breathing tube was used to measure V02 from room air. Urine output was measured when the patient voluntarily urinated through a “Texas” catheter (superficial condom tightly fitted around the head of the penis with tubing connected to urine collection bag). The patient was informed that hyperthermia would be administered as tolerated by their stamina and monitored clinical parameters, not to exceed 5 hours, on a daily or every other day basis, for a total of 5 sessions.
Treatment procedure: Baseline reading for 5 minutes established an average V02 of 300 cc/min. An initial dose of 2 mg/kg of DNP was administered over a 2 minute period. V02 increased and stabilized at 15 minutes at 340-380 cc/min. An additional 2 mg/kg DNP infusion was given, the V02 increased and stabilized at 610-630 cc/min. […]

heat shock protein = assay: DNP induction of autologous heat shock proteins; type: in vivo, human; conditions: after cessation of DNP
Procedure: DNP would be given orally at doses to increase the V02 from 1.5 to 5 times above normal per day for a period of 2-6 days or, as an infusion at doses that would increase V02 and core body temperatures no greater than 39° C. for periods of 5 to 6 hours or, intravenous doses of DNP alone, with vasopressors, or other short acting metabolic stimulators, that would increase V02 to equivalent core temperatures of 40-41° C. for periods of 15-30 minutes. Within 8-48 hours after cessation of DNP, the patient would have maximum heat shock protein production. Such DNP induced stress would improve clinical outcome by induction of cellular heat shock protein synthesis with protection of the patient's, organs, tissues and cells from subsequent ischemic surgical or traumatic procedures.

[3] = system: arterial catheter balloon injury; assay: arterial catheter balloon injury after DNP pretreatment; type: in vivo, Sprague-Dawley rats; conditions: rats pretreated with DNP induced hyperthermia (FIG. 21)
Source text: This method of DNP induced preconditioning could be used to decrease intimal thickening and restenosis after angioplasty, improve ischemia/reperfusion injury in organ and tissue transplantation, and improve surgical outcome of procedures that require temporary or prolonged occlusion of arterial blood flow.

hepatitis C virus = assay: DNP with interferon-alpha, chronic hepatitis C (Example 10); type: in vivo, human
Procedure: Pretreatment protocol: each evening prior to treatment the patient was instructed not to eat after 7 pm and dress in cotton clothes. Approximately 6 hours prior to intravenous DNP administration they were to be given 1.5 million units of subcutaneous interferon-alpha every 3rd day. Repeat blood work, including CBC and platelet count, AST, ALT, and hepatitis C-RNA levels would be initially obtained at 48 hours and weekly thereafter. No efforts were to be made to prevent body heat loss. A single intravenous line was placed with a 21-gauge interacath. Heart rate, rectal thermistor, and VO2 monitoring was conducted during therapy as outlined.
Treatment procedure: the patient presented themself for outpatient treatment and was given a subcutaneous dose of 1.5 million units of interferon-alpha. Approximately 6 hours thereafter, at 1 pm, a baseline VO2 recording of 5 minutes was 160 cc/min. They were infused with 1 mg/kg DNP over a 2 minute period. At 20 minutes, their VO2 increased and stabilized at approximately 210 cc/min. A second dose of 1 mg/kg DNP was infused and the VO2 peaked 20 minutes later at 250 cc/min. An additional dose of 2.0 mg/kg DNP was given 30 minutes following the second dose. […] The patient's rectal temperature increased and never exceeded 1.3° C. above their normal baseline. Two hours after their last dose of DNP, their VO2 declined to 280 cc/min. An additional 2 mg/kg dose of DNP was administered. The patients VO2 increased and stabilized 20 minutes thereafter to a level of 420 cc/min. […] Throughout treatment the patient was permitted to drink fluids ad libitum. […] The 5 day treatment protocol was repeated after a 2 day “DNP rest period”. This regimen was repeated times 3. Subcutaneous interferon-alpha was administered for a total of 10 weeks.

O=[N+]([O-])c1ccc(O)c([N+](=O)[O-])c1 [DNP, 2,4-dinitrophenol]
hyperthermia [1]: up to 49 °C | bone pain ([2]; 6th day following therapy, DNP with methylene blue): decrease in their low back, hip and other areas of bone pain | PSA values ([2]; 6 weeks after treatment): 30 ng/mL | tumor necrotic on prostatic biopsy ([2]; 10 weeks after initiation of treatment): 95% | analgesic use ([2]; by 2 weeks): off all narcotic (morphine) analgesics | acid phosphatase ([2]; day 8): remained unchanged | increase in PSA level ([2]; day 8): approximately 120% | PSA level ([2]; day 8, pretreatment 58 ng/ml): 125 ng/mL | repeat prostate biopsy ([2]; end of month 4, oral DNP 250 mg twice a day after IV therapy): very few intact acini or viable acinar cells | weight gained ([2]; three months after initiation of therapy): 8.2 kg | oral candidiasis (candida; 3rd day of therapy): no evidence of oral candidiasis | improvement of oral candidiasis (candida; immediately after the first treatment): 50% | time to maximum heat shock protein production (heat shock protein): 8 to 48 h | proliferative arterial catheter balloon injury [3]: limitation of proliferative arterial catheter balloon injury | ALT (hepatitis C virus; 18 months after therapy): normalization | HCV viral genome (hepatitis C virus; 18 months after therapy): remained cleared from their bloodstream | decrease of hepatitis C-RNA viral load (hepatitis C virus; after 48 hours, DNP with interferon-alpha): approximately 2 logs | increase of alanine transaminase (ALT) levels (hepatitis C virus; at 48 hours, elevated until week 3): 7 fold | increase of alkaline phosphatase levels (hepatitis C virus; at 48 hours, pretreatment levels at day 7): 2 fold | CBC, bilirubin, and blood urea nitrogen (BUN) (hepatitis C virus; during treatment): remained within normal limits | further decrease of viral load (hepatitis C virus; over the next 5 days): an additional log | HCV-RNA (hepatitis C virus; week 2 and thereafter): undetectable
